For data set [1] the following is noted: amide bond, pyridine/DMF.
The conditions of data set [2]: the molecule shown is the open-chain precursor; amide bond; 20-membered ring; ONp active ester (from TFA-ONp)/pyridine; pyridine/DMF; 5.2 mM; 50.0 °C; 3 steps.

Read-outs that look alike come from different tables or passages of the source.

In data set [1] (from H-βAla-Ser(Bzl)-Asn-Leu-Ser(Bzl)-Thr(Bzl)-Glu(ONp)-OMe, 24-membered ring, TFA-ONp/pyridine, TFA, pyridine, 55.0 °C, 3 steps), `COC(=O)[C@@H]1CCC(=O)NCCC(=O)N[C@@H](COCc2ccccc2)C(=O)N[C@@H](CC(N)=O)C(=O)N[C@@H](CC(C)C)C(=O)N[C@@H](COCc2ccccc2)C(=O)N[C@@H]([C@@H](C)OCc2ccccc2)C(=O)N1` [H-βAla-Ser(Bzl)-Asn-Leu-Ser(Bzl)-Thr(Bzl)-Glu(ONp)-OMe] yielded a ring closure, isolated yield of 68.1%.
The molecule “H-Ser(Bzl)-Asn-Leu-Ser(Bzl)-Thr(Bzl)-Tyr(CH2CO-ONp)-OMe” returned a ring closure, isolated yield in data set [1] (the molecule shown is the open-chain precursor, 25-membered ring, TFA-ONp/pyridine, TFA, pyridine, then N2H4, 55.0 °C, 4 steps) of 43.8%.
`COC(=O)[C@@H]1CCCCNC(=O)CCC(=O)N[C@@H](CC(N)=O)C(=O)N[C@@H](CC(C)C)C(=O)N[C@@H](COCc2ccccc2)C(=O)N[C@@H]([C@@H](C)OCc2ccccc2)C(=O)N1` [-COCH2 CH2 Co-Asn-Leu-Ser(Bzl)-Thr(Bzl)-Lys--OCH3] yielded a ring closure, isolated yield in data set [1] (from H-Asn-Leu-Ser(Bzl)-Thr(Bzl)-Lys(COCH2CH2CO-ONp)-OMe, 23-membered ring, TFA-ONp/pyridine, TFA, pyridine, 55.0 °C, 3 steps) of 34.9%.
“H-bAla-Ser(Bzl)-Asn-Leu-Ser(Bzl)-Thr(Bzl)-Asp(ONp)-OEt?” registered a ring closure, isolated yield in data set [1] (the molecule shown is the open-chain precursor, 23-membered ring, p-nitrophenyl ester (from TFA-ONp)/pyridine, 4.6 mM, 50.0 °C, 3 steps) of 49.5%.
In data set [1] (from H-Ser(Bzl)-Asn-Leu-Ser(Bzl)-Thr(Bzl)-Cmc(ONp)-OMe, 21-membered ring, TFA-ONp/pyridine, TFA, pyridine, 55.0 °C, 3 steps), `COC(=O)[C@@H]1CSCC(=O)N[C@@H](COCc2ccccc2)C(=O)N[C@@H](CC(N)=O)C(=O)N[C@@H](CC(C)C)C(=O)N[C@@H](COCc2ccccc2)C(=O)N[C@@H]([C@@H](C)OCc2ccccc2)C(=O)N1` [H-Ser(Bzl)-Asn-Leu-Ser(Bzl)-Thr(Bzl)-Cmc(ONp)-OMe] registered a ring closure, isolated yield of 41%.
In turn, `CCOC(=O)[C@@H]1CC(=O)NCC(=O)N[C@@H](COCc2ccccc2)C(=O)N[C@@H](CC(N)=O)C(=O)N[C@@H](CC(C)C)C(=O)N[C@@H](COCc2ccccc2)C(=O)N[C@@H]([C@@H](C)OCc2ccccc2)C(=O)N1` [H-Gly-Ser(Bzl)-Asn-Leu-Ser(Bzl)-Thr(Bzl)-Asp(ONp)-OEt] returned a ring closure, isolated yield in data set [1] (from H-Gly-Ser(Bzl)-Asn-Leu-Ser(Bzl)-Thr(Bzl)-Asp(ONp)-OEt, 22-membered ring, TFA-ONp/pyridine, TFA, pyridine, 55.0 °C, 3 steps) of 61.3%.
On to `COC(=O)[C@@H]1CCCCNC(=O)CCC(=O)N[C@@H](COCc2ccccc2)C(=O)N[C@@H](CC(N)=O)C(=O)N[C@@H](CC(C)C)C(=O)N[C@@H](COCc2ccccc2)C(=O)N[C@@H]([C@@H](C)OCc2ccccc2)C(=O)N1` [H-Ser(Bzl)-Asn-Leu-Ser(Bzl)-Thr(Bzl)-Lys(COCH2CH2CO-ONp)-OMe], for which the ring closure, isolated yield in data set [1] (from H-Ser(Bzl)-Asn-Leu-Ser(Bzl)-Thr(Bzl)-Lys(COCH2CH2CO-ONp)-OMe, 26-membered ring, TFA-ONp/pyridine, TFA, pyridine, 2.6 mM, 55.0 °C, 3 steps) is 55.5%.
Turning to `CCOC(=O)[C@@H]1CC(=O)NCCCCCC(=O)N[C@@H](CC(N)=O)C(=O)N[C@@H](CC(C)C)C(=O)N[C@@H](COCc2ccccc2)C(=O)N[C@@H]([C@@H](C)OCc2ccccc2)C(=O)N1` [H-Acp-Asn-Leu-Ser(Bzl)-Thr(Bzl)-Asp(ONp)-OEt], the ring closure, isolated yield in data set [1] (from H-Acp-Asn-Leu-Ser(Bzl)-Thr(Bzl)-Asp(ONp)-OEt, 23-membered ring, TFA-ONp/pyridine, TFA, pyridine, 55.0 °C, 3 steps) was 26.6%.
On to “H-Gly-Ser(Bzl)-Asn-Leu-Ser(Bzl)-Thr(Bzl)-Glu(ONp)-OBzl?”, for which, in data set [1] (the molecule shown is the open-chain precursor, 23-membered ring, p-nitrophenyl ester (from TFA-ONp)/pyridine, 1.2 mM, 50.0 °C, 3 steps), the ring closure, isolated yield is 50.7%.
Regarding `COC(=O)[C@@H]1CCC(=O)NCCCCCC(=O)N[C@@H](CC(N)=O)C(=O)N[C@@H](CC(C)C)C(=O)N[C@@H](COCc2ccccc2)C(=O)N[C@@H]([C@@H](C)OCc2ccccc2)C(=O)N1` [H-Acp-Asn-Leu-Ser(Bzl)-Thr(Bzl)-Glu(ONp)-OMe], the ring closure, isolated yield in data set [1] (from H-Acp-Asn-Leu-Ser(Bzl)-Thr(Bzl)-Glu(ONp)-OMe, 24-membered ring, TFA-ONp/pyridine, TFA, pyridine, 55.0 °C, 3 steps) turned out to be 45.9%.
With `COC(=O)[C@@H]1CSCCCC(=O)N[C@@H](COCc2ccccc2)C(=O)N[C@@H](CC(N)=O)C(=O)N[C@@H](CC(C)C)C(=O)N[C@@H](COCc2ccccc2)C(=O)N[C@@H]([C@@H](C)OCc2ccccc2)C(=O)N1` [H-Ser(Bzl)-Asn-Leu-Ser(Bzl)-Thr(Bzl)-Cpc(ONp)-OMe], in data set [1] (from H-Ser(Bzl)-Asn-Leu-Ser(Bzl)-Thr(Bzl)-Cpc(ONp)-OMe, 23-membered ring, TFA-ONp/pyridine, TFA, pyridine, 55.0 °C, 3 steps), the ring closure, isolated yield is 55.9%.
Turning to “H-Ser(Bzl)-Asn-Leu-Ser(Bzl)-Thr(Bzl)-Glu(ONp)-OBzl?”, the ring closure, crude yield in data set [2] is 62.7%.
Molecule “H-Ser(Bzl)-Asn-Leu-Ser(Bzl)-Thr(Bzl)-4-CPA(ONp)-OMe?” registered a ring closure, isolated yield in data set [1] (the molecule shown is the open-chain precursor, 23-membered ring, p-nitrophenyl ester (from TFA-ONp)/pyridine, 1.33 mM, 50.0 °C, 3 steps) of 53.8%.

For the origin of these results see US5162305.
